Experimental data reported in patent US10053417B2, “Neprilysin inhibitors” (THERAVANCE BIOPHARMA R&D IP, LLC, priority 2013, dated 2018).

Each compound was assayed against T1, human NEP (Homo sapiens, UniProt P08473) (assay: In vitro enzyme inhibition assay, inhibitor potency at human NEP (Assay 1)). Details: recombinant human NEP; fluorogenic peptide substrate 10 μM; 37° C.; values given as ranges.
T1 construct: purchased R&D Systems, Minneapolis, Minn; 1182-ZN
Assay type: biochemical
Method: The inhibitory activities of compounds at human and rat neprilysin (EC 3.4.24.11; NEP) and human angiotensin converting enzyme (ACE) were determined using in vitro assays as described below.
Recombinant human NEP and recombinant human ACE were obtained commercially (R&D Systems, Minneapolis, Minn., catalog numbers 1182-ZN and 929-ZN, respectively). The fluorogenic peptide substrate Mca-D-Arg-Arg-Leu-Dap-(Dnp)-OH (Medeiros et al. (1997) Braz. J. Med. Biol. Res. 30:1157-62; Anaspec, San Jose, Calif.) and Abz-Phe-Arg-Lys(Dnp)-Pro-OH (Araujo et al. (2000) Biochemistry 39:8519-8525; Bachem, Torrance, Calif.) were used in the NEP and ACE assays respectively.
The assays were performed in 384-well white opaque plates at 37° C. using the fluorogenic peptide substrates at a concentration of 10 μM in Assay Buffer (NEP: 50 mM HEPES, pH 7.5, 100 mM NaCl, 0.01% polyethylene glycol sorbitan monolaurate (Tween-20), 10 μM ZnSO4; ACE: 50 mM HEPES, pH 7.5, 100 mM NaCl, 0.01% Tween-20, 1 μM ZnSO4).
Test compounds were assayed over the range of concentrations from […] to 20 μM. Test compounds were added to the enzymes and incubated for 30 minute at 37° C. prior to initiating the reaction by the addition of substrate. Reactions were terminated after 20 minutes of incubation at 37° C. by the addition of glacial acetic acid to a final concentration of 3.6% (v/v).
Plates were read on a fluorometer with excitation and emission wavelengths set to 320 nm and 405 nm, respectively. Inhibition constants were obtained by nonlinear regression of the data using the equation (GraphPad Software, Inc., San Diego, Calif.): ν=ν0/[1+(I/K′)] where ν is the reaction rate, ν0 is the uninhibited reaction rate, I is the inhibitor concentration and K′ is the apparent inhibition constant.
Compounds of the invention were tested in this assay and found to have pKi values at human NEP as follows.

T1 sequence (P08473 52-750 limits assumed): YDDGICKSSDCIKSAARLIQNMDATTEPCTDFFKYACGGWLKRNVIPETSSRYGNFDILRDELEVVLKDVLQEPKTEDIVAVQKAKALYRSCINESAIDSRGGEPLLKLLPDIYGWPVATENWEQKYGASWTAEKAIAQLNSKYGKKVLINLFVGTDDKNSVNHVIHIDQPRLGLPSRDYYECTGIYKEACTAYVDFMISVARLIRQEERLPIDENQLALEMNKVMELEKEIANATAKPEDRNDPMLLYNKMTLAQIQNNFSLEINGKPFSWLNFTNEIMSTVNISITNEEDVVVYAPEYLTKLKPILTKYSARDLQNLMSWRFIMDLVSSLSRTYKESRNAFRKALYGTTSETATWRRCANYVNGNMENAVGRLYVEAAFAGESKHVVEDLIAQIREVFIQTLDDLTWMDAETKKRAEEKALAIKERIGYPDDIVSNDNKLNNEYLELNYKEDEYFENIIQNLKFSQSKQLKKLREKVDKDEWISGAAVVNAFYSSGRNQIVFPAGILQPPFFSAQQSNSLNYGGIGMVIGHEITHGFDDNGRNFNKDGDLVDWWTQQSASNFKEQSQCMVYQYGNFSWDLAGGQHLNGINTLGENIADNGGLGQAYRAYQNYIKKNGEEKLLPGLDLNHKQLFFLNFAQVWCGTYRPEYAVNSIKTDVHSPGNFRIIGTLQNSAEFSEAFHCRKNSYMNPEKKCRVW

Row | Ki [µM] | SMILES
1 | 0.001 to 0.01 | COC(=O)N1CCN(C(=O)C(=O)N[C@H](Cc2ccc(-c3cccc(Cl)c3)cc2)C[C@@H](O)C(=O)O)CC1 [Example 4-41, 4-[(1R,3R)-3-Carboxy-1-(3′-chlorobiphenyl-4-ylmethyl)-3-hydroxy-propylaminooxalyl]-piperazine-1-carboxylic acid methyl ester]
2 | ≤ 0.001 | O=C(N[C@H](Cc1ccc(-c2cccc(Cl)c2)cc1)C[C@@H](O)C(=O)O)C(=O)N1CCCC[C@H]1CO [Example 4-26, (2R,4R)-5-(3′-Chlorobiphenyl-4-yl)-2-hydroxy-4-[2-((S)-2-hydroxymethyl-piperidin-1-yl)-2-oxo-acetylamino]pentanoic acid]
3 | 0.001 to 0.01 | COCC(=O)N[C@H](Cc1ccc(-c2cccc(Cl)c2)cc1)C[C@@H](O)C(=O)O [Example 10-2, (2R,4R)-5-(3′-Chlorobiphenyl-4-yl)-2-hydroxy-4-(2-methoxyacetylamino)-pentanoic acid]
4 | 0.01 to 0.0316 | CN(C)C(=O)C(=O)N[C@H](Cc1ccc(-c2cccc(Cl)c2)cc1)C[C@@H](O)C(=O)O [Example 4-11, (2R,4R)-5-(3′-Chlorobiphenyl-4-yl)-4-(dimethylaminooxalylamino)-2-hydroxy-pentanoic acid]
5 | 0.001 to 0.01 | Cc1ccc(NNC(=O)C(=O)N[C@H](Cc2ccc(-c3cccc(Cl)c3)cc2)C[C@@H](O)C(=O)O)cc1 [Example 6-11, (2R,4R)-5-(3′-Chlorobiphenyl-4-yl)-2-hydroxy-4-[(N′-p-tolyl-hydrazinooxalyl)-amino]-pentanoic acid]
6 | 0.01 to 0.0316 | O=C(NOCc1ccccc1)C(=O)N[C@H](Cc1ccc(-c2cccc(Cl)c2)cc1)C[C@@H](O)C(=O)O [Example 4-5, (2R,4R)-4-(Benzyloxyaminooxalylamino)-5-(3′-chlorobiphenyl-4-yl)-2-hydroxy-pentanoic acid]
7 | 0.001 to 0.01 | O=C(NNC(=O)c1cccnc1)C(=O)N[C@H](Cc1ccc(-c2cccc(Cl)c2)cc1)C[C@@H](O)C(=O)O [Example 8-3, (2R,4R)-5-(3′-Chlorobiphenyl-4-yl)-2-hydroxy-4-{2-oxo-2-[N′-(pyridine-3-carbonyl)-hydrazino]acetylamino}pentanoic acid]
8 | 0.001 to 0.01 | O=C(NNc1cccnc1)C(=O)N[C@H](Cc1ccc(-c2cccc(Cl)c2)cc1)C[C@@H](O)C(=O)O [Example 6-4, (2R,4R)-5-(3′-Chlorobiphenyl-4-yl)-2-hydroxy-4-[(N′-pyridin-3-yl-hydrazino-oxalyl)-amino]pentanoic acid]
9 | 0.01 to 0.0316 | CC(C)OCC(=O)N[C@H](Cc1ccc(-c2cccc(Cl)c2)cc1)C[C@@H](O)C(=O)O [Example 10-4, (2R,4R)-5-(3′-Chlorobiphenyl-4-yl)-2-hydroxy-4-(2-isopropoxyacetylamino)-pentanoic acid]
10 | 0.001 to 0.01 | CS(=O)(=O)C1CCN(C(=O)C(=O)N[C@H](Cc2ccc(-c3cccc(Cl)c3)cc2)C[C@@H](O)C(=O)O)C1 (stereo partly drawn) [Example 4-15, (2R,4R)-5-(3′-Chlorobiphenyl-4-yl)-2-hydroxy-4-[2-(3-methanesulfonyl-pyrrolidin-1-yl)-2-oxo-acetylamino]pentanoic acid]
11 | 0.001 to 0.01 | O=C(NNc1ccc(F)cc1)C(=O)N[C@H](Cc1ccc(-c2cccc(Cl)c2)cc1)C[C@@H](O)C(=O)O [Example 6-12, (2R,4R)-5-(3′-Chlorobiphenyl-4-yl)-4-{[N′-(4-fluoro-phenyl)-hydrazinooxalyl]-amino}-2-hydroxypentanoic acid]
12 | ≤ 0.001 | O=C(N[C@H](Cc1ccc(-c2cccc(Cl)c2)cc1)C[C@@H](O)C(=O)O)C(=O)N1CCC(O)CC1 [Example 4-18, (2R,4R)-5-(3′-Chlorobiphenyl-4-yl)-2-hydroxy-4-[2-(4-hydroxy-piperidin-1-yl)-2-oxo-acetylamino]pentanoic acid]
13 | 0.001 to 0.01 | COCC(=O)N[C@H](Cc1ccc(-c2cccc(Cl)c2)cc1)C[C@@](C)(CO)C(=O)O [Example 11, (2S,4R)-5-(3′-Chlorobiphenyl-4-yl)-2-hydroxymethyl-4-(2-methoxy-acetylamino)-2-methylpentanoic Acid]
14 | 0.001 to 0.01 | O=C(N[C@H](Cc1ccc(-c2cccc(Cl)c2)cc1)C[C@@H](O)C(=O)O)C(=O)N1CCCO1 [Example 4-48, (2R,4R)-5-(3′-Chlorobiphenyl-4-yl)-2-hydroxy-4-(2-isoxazolidin-2-yl-2-oxo-acetylamino)pentanoic acid]
15 | 0.001 to 0.01 | O=C(NNc1ccc(Br)cc1)C(=O)N[C@H](Cc1ccc(-c2cccc(Cl)c2)cc1)C[C@@H](O)C(=O)O [Example 6-14, (2R,4R)-4-{[N′-(4-Bromophenyl)-hydrazinooxalyl]-amino}-5-(3′-chlorobiphenyl-4-yl)-2-hydroxypentanoic acid]
16 | 0.01 to 0.0316 | CN(C)C(=O)N1CCN(C(=O)C(=O)N[C@H](Cc2ccc(-c3cccc(Cl)c3)cc2)C[C@@H](O)C(=O)O)CC1 [Example 4-40, (2R,4R)-5-(3′-Chlorobiphenyl-4-yl)-4-[2-(4-dimethylcarbamoyl-piperazin-1-yl)-2-oxo-acetylamino]-2-hydroxypentanoic acid]
17 | 0.01 to 0.0316 | CNNC(=O)C(=O)N[C@H](Cc1ccc(-c2cccc(Cl)c2)cc1)C[C@@H](O)C(=O)O [Example 6-1, (2R,4R)-5-(3′-Chlorobiphenyl-4-yl)-2-hydroxy-4-[(N′-methylhydrazinooxalyl)-amino]pentanoic acid]
18 | 0.01 to 0.0316 | CN1CCN(C(=O)C(=O)N[C@H](Cc2ccc(-c3cccc(Cl)c3)cc2)C[C@@H](O)C(=O)O)CC1 [Example 4-34, (2R,4R)-5-(3′-Chlorobiphenyl-4-yl)-2-hydroxy-4-[2-(4-methyl-piperazin-1-yl)-2-oxo-acetylamino]pentanoic acid]
19 | 0.001 to 0.01 | CC(C)CC(=O)C(=O)N[C@H](Cc1ccc(-c2cccc(Cl)c2)cc1)C[C@@H](O)C(=O)O [Example 2-1, (2R,4R)-5-(3′-Chloro-biphenyl-4-yl)-2-hydroxy-4-(4-methyl-2-oxo-pentanoylamino)-pentanoic acid]
20 | 0.01 to 0.0316 | CS(=O)(=O)N1CCN(C(=O)C(=O)N[C@H](Cc2ccc(-c3cccc(Cl)c3)cc2)C[C@@H](O)C(=O)O)CC1 [Example 4-39, (2R,4R)-5-(3′-Chlorobiphenyl-4-yl)-2-hydroxy-4-[2-(4-methanesulfonyl-piperazin-1-yl)-2-oxo-acetylamino]pentanoic acid]
21 | 0.01 to 0.0316 | COc1cccc(OCC(=O)N[C@H](Cc2ccc(-c3cccc(Cl)c3)cc2)C[C@@H](O)C(=O)O)c1 [Example 10-9, (2R,4R)-5-(3′-Chlorobiphenyl-4-yl)-2-hydroxy-4-[2-(3-methoxyphenoxy)-acetylamino]-pentanoic acid]
22 | 0.001 to 0.01 | C[C@H]1COC[C@H](C)N1C(=O)C(=O)N[C@H](Cc1ccc(-c2cccc(Cl)c2)cc1)C[C@@H](O)C(=O)O [Example 4-47, (2R,4R)-5-(3′-Chlorobiphenyl-4-yl)-4-[2-((3S,5S)-3,5-dimethylmorpholin-4-yl)-2-oxo-acetylamino]-2-hydroxypentanoic acid]
23 | 0.01 to 0.0316 | O=C(NNC(=O)C(=O)N[C@H](Cc1ccc(-c2cccc(Cl)c2)cc1)C[C@@H](O)C(=O)O)OCc1ccccc1 [Example 8-1, (2R,4R)-4-[2-(N′-Benzyloxycarbonyl-hydrazino)-2-oxo-acetylamino]-5-(3′-chloro-biphenyl-4-yl)-2-hydroxypentanoic acid]
24 | 0.001 to 0.01 | O=C(N[C@H](Cc1ccc(-c2cccc(Cl)c2)cc1)C[C@@H](O)C(=O)O)C(=O)N1CCC[C@@H]1CO [Example 4-16, (2R,4R)-5-(3′-Chlorobiphenyl-4-yl)-2-hydroxy-4-[2-((R)-2-hydroxymethyl-pyrrolidin-1-yl)-2-oxo-acetylamino]pentanoic acid]
25 | 0.001 to 0.01 | C[C@@H]1CN(C(=O)C(=O)N[C@H](Cc2ccc(-c3cccc(Cl)c3)cc2)C[C@@H](O)C(=O)O)C[C@H](C)O1 [Example 4-45, (2R,4R)-5-(3′-Chlorobiphenyl-4-yl)-4-[2-((2R,6S)-2,6-dimethylmorpholin-4-yl)-2-oxo-acetylamino]-2-hydroxypentanoic acid]
26 | 0.01 to 0.0316 | O=C(NC1CCCC1)C(=O)N[C@H](Cc1ccc(-c2cccc(Cl)c2)cc1)C[C@@H](O)C(=O)O [Example 4-1, (2R,4R)-5-(3′-Chlorobiphenyl-4-yl)-4-(cyclopentylaminooxalylamino)-2-hydroxypentanoic acid]
27 | 0.001 to 0.01 | Cc1cccc(NNC(=O)C(=O)N[C@H](Cc2ccc(-c3cccc(Cl)c3)cc2)C[C@@H](O)C(=O)O)c1 [Example 6-16, (2R,4R)-5-(3′-Chlorobiphenyl-4-yl)-2-hydroxy-4-[(N′-m-tolylhydrazinooxalyl)-amino]pentanoic acid]
28 | 0.01 to 0.0316 | O=C(N[C@H](Cc1ccc(-c2cccc(Cl)c2)cc1)C[C@@H](O)C(=O)O)C(=O)NN1CCOCC1 [Example 4-8, (2R,4R)-5-(3′-Chlorobiphenyl-4-yl)-2-hydroxy-4-[(morpholin-4-ylaminooxalyl)-amino]pentanoic acid]
